Experimental data reported in ChEMBL document CHEMBL1201862, “PubChem BioAssay data set” (2004).
Activity calls are given as the source filed them. Rule as the data show it, for most assays here: actives have a measured EC50 and inactives only a lower limit.

Experiments:
[1] = molecular target: T1, RNA-binding protein pos-1 (Caenorhabditis elegans, UniProt G5EF15); assay: disruptors of C. elegans POS-1 RNA interaction – biochemical, fluorescence polarization, dose response (AID 1964);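 also: purified POS-1 fused to maltose binding protein made in E. coli; potency of compounds blocking POS-1 binding to fluorescent RNA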
T1 sequence (G5EF15 whole entry): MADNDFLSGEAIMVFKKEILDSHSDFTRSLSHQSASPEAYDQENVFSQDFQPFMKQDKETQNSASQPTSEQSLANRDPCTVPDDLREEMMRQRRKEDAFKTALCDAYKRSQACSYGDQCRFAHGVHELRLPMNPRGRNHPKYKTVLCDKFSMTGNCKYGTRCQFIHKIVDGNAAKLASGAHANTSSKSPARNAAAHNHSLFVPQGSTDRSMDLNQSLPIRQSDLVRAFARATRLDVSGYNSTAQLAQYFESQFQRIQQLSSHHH

[2] = molecular target: T2, Zinc finger protein mex-5 (Caenorhabditis elegans, UniProt Q9XUB2); assay: potency of MEX-5 RNA-binding blockers – biochemical, C. elegans, fluorescence polarization, dose response (AID 1960)
T2 sequence (Q9XUB2 whole entry): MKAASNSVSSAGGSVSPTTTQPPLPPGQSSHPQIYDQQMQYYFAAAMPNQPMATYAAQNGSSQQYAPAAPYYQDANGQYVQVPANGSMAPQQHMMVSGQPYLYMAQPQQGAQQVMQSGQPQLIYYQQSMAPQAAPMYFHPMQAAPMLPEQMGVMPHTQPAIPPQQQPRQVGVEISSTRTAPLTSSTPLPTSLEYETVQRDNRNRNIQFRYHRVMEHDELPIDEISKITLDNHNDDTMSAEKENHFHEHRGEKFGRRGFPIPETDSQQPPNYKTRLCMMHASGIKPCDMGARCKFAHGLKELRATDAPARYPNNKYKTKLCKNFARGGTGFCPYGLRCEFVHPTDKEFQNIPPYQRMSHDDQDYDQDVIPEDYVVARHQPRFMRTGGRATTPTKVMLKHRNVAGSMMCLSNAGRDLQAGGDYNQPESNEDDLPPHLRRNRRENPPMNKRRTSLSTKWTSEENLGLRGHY

[3] = Luminescence Cell-Based Dose Response HTS to Identify Activators of Luciferase Translation or Activity in H4 […] Cells. [Related pubchem assays: 1829 (Project Summary), 1814 (Primary HTS)]; format: functional
H4 = assay: Luminescence Cell-Based Dose Response HTS to Identify Activators of 5'UTR Stem-Loop Driven Prion Protein mRNA Translation in H4 Neuroglioblastoma Cells. [Related pubchem assays: 1829 (Project Summary), 1814 (Primary HTS)]; format: functional; conditions: Homo sapiens
[4] = Trypanosoma cruzi growth suppression in host cells – NIH3T3 host cells, beta-gal luminescence, confirmation (AID 2044); format: functional, cell-based;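 also: intracellular parasites grown in NIH/3T3 mouse fibroblasts as host cells; luminescent beta-galactosidase reporter signal from transgenic T. cruzi replicating inside host cells; inhibitors lower the luminescence signal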
[5] = Luminescence Cell-Based Dose Confirmation HTS to Identify Activators of 5'UTR Stem-Loop Driven Alpha-Synuclein mRNA Translation in H4 Neuroglioblastoma Cells. [Related pubchem assays: 1829 (Project Summary), 1814 (Primary HTS)]; format: functional
[6] = NIH3T3 cell viability loss – ATP luminescence, mouse fibroblasts, counter-screen, dose response (AID 2010); format: functional, cell-based;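 also: cells exposed to compound for about 90 hours before reading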
Protein RecA = molecular target: T3, Protein RecA (Mycobacterium tuberculosis, UniProt P9WHJ3); assay: Fluorescence Cell-Free Homogeneous Dose Retest to Identify Inhibitors of RecA-Intein Splicing Activity. [Related pubchem assays (depositor defined):AID2097, AID2223, AID489010, AID492950]; format: functional
T3 sequence (P9WHJ3 whole entry): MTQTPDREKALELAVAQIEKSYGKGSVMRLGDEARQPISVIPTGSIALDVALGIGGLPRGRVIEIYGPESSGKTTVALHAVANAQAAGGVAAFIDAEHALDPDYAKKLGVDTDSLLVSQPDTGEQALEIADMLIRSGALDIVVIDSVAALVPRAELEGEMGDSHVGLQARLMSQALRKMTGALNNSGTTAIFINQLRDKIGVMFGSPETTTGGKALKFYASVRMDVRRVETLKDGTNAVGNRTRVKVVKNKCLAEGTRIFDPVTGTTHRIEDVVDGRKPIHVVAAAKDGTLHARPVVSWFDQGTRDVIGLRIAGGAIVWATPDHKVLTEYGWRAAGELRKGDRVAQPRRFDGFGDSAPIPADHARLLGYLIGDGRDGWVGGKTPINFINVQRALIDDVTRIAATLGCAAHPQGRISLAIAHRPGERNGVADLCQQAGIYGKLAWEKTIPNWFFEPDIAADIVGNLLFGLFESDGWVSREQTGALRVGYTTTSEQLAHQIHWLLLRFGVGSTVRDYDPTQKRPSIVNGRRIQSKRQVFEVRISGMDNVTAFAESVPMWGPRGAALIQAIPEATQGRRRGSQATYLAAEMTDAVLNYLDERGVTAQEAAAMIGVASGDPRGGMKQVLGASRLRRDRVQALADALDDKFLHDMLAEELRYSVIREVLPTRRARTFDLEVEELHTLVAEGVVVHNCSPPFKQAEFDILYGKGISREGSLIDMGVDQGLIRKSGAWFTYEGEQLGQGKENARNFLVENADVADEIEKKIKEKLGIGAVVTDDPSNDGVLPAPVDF

[7] = molecular target: T4, Replicative DNA helicase DnaB (Mycobacterium tuberculosis, UniProt P9WMR3); assay: DnaB intein splicing inhibitors, dose response, biochemical, cell-free fluorescence (AID 449749); format: functional
T4 sequence (P9WMR3 whole entry): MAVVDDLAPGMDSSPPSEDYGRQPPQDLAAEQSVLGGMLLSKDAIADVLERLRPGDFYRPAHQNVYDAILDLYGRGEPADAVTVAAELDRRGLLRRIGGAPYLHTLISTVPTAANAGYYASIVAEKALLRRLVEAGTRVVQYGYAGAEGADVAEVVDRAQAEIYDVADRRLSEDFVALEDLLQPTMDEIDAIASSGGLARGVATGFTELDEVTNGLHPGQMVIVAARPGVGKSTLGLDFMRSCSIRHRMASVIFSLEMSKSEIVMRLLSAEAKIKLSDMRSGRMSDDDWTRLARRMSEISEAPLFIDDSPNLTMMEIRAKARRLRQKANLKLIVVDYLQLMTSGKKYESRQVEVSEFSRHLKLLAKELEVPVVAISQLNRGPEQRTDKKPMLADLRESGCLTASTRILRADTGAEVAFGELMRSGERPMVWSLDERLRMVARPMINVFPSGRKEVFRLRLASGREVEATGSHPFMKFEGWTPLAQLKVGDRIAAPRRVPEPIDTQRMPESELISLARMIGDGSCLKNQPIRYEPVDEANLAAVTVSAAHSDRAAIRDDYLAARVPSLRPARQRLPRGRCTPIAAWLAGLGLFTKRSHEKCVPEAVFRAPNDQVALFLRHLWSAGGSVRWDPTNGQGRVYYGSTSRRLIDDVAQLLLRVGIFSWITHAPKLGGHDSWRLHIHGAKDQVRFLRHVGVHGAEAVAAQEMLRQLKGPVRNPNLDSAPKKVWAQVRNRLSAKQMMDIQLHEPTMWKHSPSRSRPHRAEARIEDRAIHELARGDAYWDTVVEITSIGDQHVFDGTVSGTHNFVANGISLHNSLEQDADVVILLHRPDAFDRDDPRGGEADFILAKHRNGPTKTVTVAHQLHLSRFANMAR

SMILES: CCN1CCc2c(sc(NC(=O)c3ccc4ccccc4c3)c2C(N)=O)C1
- EC50 [1]: 45.5 µM (active)
- EC50 [2]: > 300 µM (inconclusive)
- EC50 [3]: 7.69 µM (active)
- EC50 (H4): > 60 µM (not active)
- EC50 [4]: 2.47 µM (active)
- EC50 [5]: 36.5 µM (active)
- EC50 [6]: 16.8 µM (active)

SMILES: Cc1ccc(NC(=O)c2cn(-c3cccc(C)n3)cn2)cc1
- EC50 [3]: 0.269 µM (active)
- EC50 (H4): > 120 µM (not active)
- EC50 [5]: 0.157 µM (active)

SMILES: CCCOc1cccc(-c2nc3ccccc3c(=O)o2)c1
- EC50 (Protein RecA): 6.81 µM (active)
- EC50 [3]: 16.3 µM (active)
- EC50 [5]: 26.3 µM (active)
- AC50 [7]: 9.46 µM (active)

SMILES: c1ccc(SCc2nc(-c3ccncc3)no2)cc1
- EC50 [3]: 25.8 µM (active)
- EC50 (H4): 10.1 µM (active)
- EC50 [5]: 14.8 µM (active)

SMILES: CCCc1ccc2oc(C(=O)NCCCN3CCOCC3)c(C)c2c1
- EC50 [3]: 30.8 µM (active)
- EC50 (H4): 53.7 µM (active)
- EC50 [5]: 18.7 µM (active)

SMILES: N#Cc1c(NC(=O)C2CC2)sc2c1CCCCC2
- EC50 [3]: 81.4 µM (active)
- EC50 (H4): > 120 µM (not active)
- EC50 [5]: 34.7 µM (active)
